Data as given in PubChem BioAssay (NCI).
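Each compound was tested at five concentrations against cells in 96-well plates for 48 hours. GI50 marks 50% less growth. The concentration for full growth arrest is given as TGI.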

Assays:
Assay in all cases: growth of human tumour cells (NCI), 48 h
[1] = tested on: SF-268 CNS
[2] = tested on: NCI-H23 lung
[3] = tested on: SW-620 colon
[4] = tested on: M14 melanoma
[5] = tested on: CAKI-1 renal
[6] = tested on: MALME-3M melanoma
[7] = tested on: SK-MEL-5 melanoma
[8] = tested on: LOX IMVI melanoma
[9] = tested on: HT29 colon
[10] = tested on: OVCAR-5 ovarian
[11] = tested on: DU-145 prostate
[12] = tested on: A549 NSCLC
[13] = tested on: HOP-92 NSCLC
[14] = tested on: UACC-62 melanoma
[15] = tested on: SNB-75 CNS
[16] = tested on: NCI/ADR-RES ovarian
[17] = tested on: HS 578T breast
[18] = tested on: UACC-257 melanoma
[19] = tested on: SK-MEL-28 melanoma
[20] = tested on: TK-10 renal
[21] = tested on: PC-3 prostate
[22] = tested on: IGROV1 ovarian
[23] = tested on: SR leukemia
[24] = tested on: NCI-H522 lung
[25] = tested on: MOLT-4 leukemia
[26] = tested on: SNB-19 CNS
[27] = tested on: RPMI-8226 leukemia
[28] = tested on: A498 renal
[29] = tested on: CCRF-CEM leukemia
[30] = tested on: SK-MEL-2 melanoma
[31] = tested on: HCC-2998 colon
[32] = tested on: SN12C renal
[33] = tested on: HL-60(TB) leukemia
[34] = tested on: EKVX NSCLC
[35] = tested on: HCT-15 colon
[36] = tested on: OVCAR-3 ovarian
[37] = tested on: MDA-MB-435
[38] = tested on: SK-OV-3 ovarian
[39] = tested on: KM12 colon
[40] = tested on: SF-539 CNS
[41] = tested on: BT-549 breast
[42] = tested on: K-562 leukemia
[43] = tested on: MDA-MB-231 breast
[44] = tested on: COLO 205 colon
[45] = tested on: 786-0 renal
[46] = tested on: T-47D breast
[47] = tested on: OVCAR-4 ovarian
[48] = tested on: HCT-116 colon
[49] = tested on: SF-295 CNS
[50] = tested on: NCI-H460 lung
[51] = tested on: ACHN renal
[52] = tested on: MCF7 breast
[53] = tested on: UO-31 renal
[54] = tested on: OVCAR-8 ovarian
[55] = tested on: HOP-62 NSCLC
[56] = tested on: RXF 393 renal
[57] = tested on: NCI-H226 lung

`COc1ccc2c(OCc3nnc4ccc(-c5ccccc5)nn34)ccnc2c1` was tested, and the GI50 [1] was over 100 µM, the TGI [1] was over 100 µM and the GI50 [2] was over 100 µM. The TGI [2] was over 100 µM, the GI50 [3] was over 100 µM and the TGI [3] was over 100 µM. It also gave a GI50 [4] of over 100 µM, a TGI [4] of over 100 µM and a GI50 [5] of over 100 µM. For the same molecule, the TGI [5] was over 100 µM, the GI50 [6] was over 100 µM and the TGI [6] was over 100 µM. The GI50 [7] was over 100 µM, the TGI [7] was over 100 µM and the GI50 [8] was over 100 µM. The TGI [8] was over 100 µM, the GI50 [9] was over 100 µM and the TGI [9] was over 100 µM. It also gave a GI50 [10] of over 100 µM, a TGI [10] of over 100 µM and a GI50 [11] of over 100 µM. It also gave a TGI [11] of over 100 µM, a GI50 [12] of over 100 µM and a TGI [12] of over 100 µM. The GI50 [13] was over 100 µM, the TGI [13] was over 100 µM and the GI50 [14] was over 100 µM. It also gave a TGI [14] of over 100 µM, a GI50 [15] of over 100 µM and a TGI [15] of over 100 µM. The GI50 [16] was over 100 µM, the TGI [16] was over 100 µM and the GI50 [17] was over 100 µM. The TGI [17] was over 100 µM, the GI50 [18] was over 100 µM and the TGI [18] was over 100 µM. The GI50 [19] was over 100 µM, the TGI [19] was over 100 µM and the GI50 [20] was over 100 µM. For the same molecule, the TGI [20] was over 100 µM, the GI50 [21] was over 100 µM and the TGI [21] was over 100 µM. For the same molecule, the GI50 [22] was over 100 µM, the TGI [22] was over 100 µM and the GI50 [23] was 5.64 µM. For the same molecule, the TGI [23] was over 100 µM, the GI50 [24] was 20.1 µM and the TGI [24] was over 43.8 µM. It also gave a GI50 [25] of over 100 µM, a TGI [25] of over 100 µM and a GI50 [26] of over 100 µM. It also gave a TGI [26] of over 100 µM, a GI50 [27] of over 100 µM and a TGI [27] of over 100 µM. The GI50 [28] was over 100 µM, the TGI [28] was over 100 µM and the GI50 [29] was over 58.1 µM. For the same molecule, the TGI [29] was over 100 µM, the GI50 [30] was over 91.1 µM and the TGI [30] was over 100 µM. For the same molecule, the GI50 [31] was over 100 µM, the TGI [31] was over 100 µM and the GI50 [32] was over 100 µM. For the same molecule, the TGI [32] was over 100 µM, the GI50 [33] was over 100 µM and the TGI [33] was over 100 µM. The GI50 [34] was over 100 µM, the TGI [34] was over 100 µM and the GI50 [35] was over 100 µM. For the same molecule, the TGI [35] was over 100 µM, the GI50 [36] was over 100 µM and the TGI [36] was over 100 µM. The GI50 [37] was over 100 µM, the TGI [37] was over 100 µM and the GI50 [38] was over 100 µM. It also gave a TGI [38] of over 100 µM, a GI50 [39] of over 100 µM and a TGI [39] of over 100 µM. It also gave a GI50 [40] of over 100 µM, a TGI [40] of over 100 µM and a GI50 [41] of over 100 µM. For the same molecule, the TGI [41] was over 100 µM, the GI50 [42] was over 100 µM and the TGI [42] was over 100 µM. For the same molecule, the GI50 [43] was over 20.3 µM and the TGI [43] was over 100 µM.

`C/C(=C\c1csc(C)n1)[C@@H]1C[C@@H]2O[C@@H]2CCC[C@H](C)[C@H](O)[C@@H](C)C(=O)C(C)(C)[C@@H](O)CC(=O)O1` gave a TGI [1] of over 100 µM, a TGI [3] of 18.7 µM and a TGI [44] of 0.0804 µM. It also gave a TGI [9] of 0.000586 µM, a TGI [11] of 0.00464 µM and a TGI [12] of over 100 µM. For the same molecule, the TGI [13] was 0.608 µM, the TGI [45] was over 100 µM and the TGI [15] was under 0.0001 µM. The TGI [16] was 0.000598 µM, the TGI [18] was over 100 µM and the TGI [46] was over 100 µM. It also gave a GI50 [47] of 23 µM, a TGI [47] of over 100 µM and a TGI [20] of over 100 µM. The TGI [21] was over 100 µM, the TGI [22] was over 100 µM and the TGI [48] was over 100 µM. The TGI [23] was 0.00609 µM, the TGI [24] was under 0.0001 µM and the TGI [25] was over 100 µM. The TGI [49] was under 0.0001 µM, the TGI [26] was over 100 µM and the TGI [28] was 0.333 µM. It also gave a TGI [29] of over 100 µM, a TGI [31] of under 0.0001 µM and a TGI [33] of over 100 µM. The TGI [34] was 0.525 µM, the TGI [50] was over 100 µM and the TGI [37] was under 0.0001 µM. It also gave a TGI [38] of 0.398 µM, a TGI [51] of over 100 µM and a TGI [39] of over 100 µM. It also gave a TGI [52] of 0.349 µM, a TGI [40] of under 0.0001 µM and a TGI [41] of over 100 µM.

`COc1cc2c(=O)[nH]c3cc([N+](=O)[O-])ccc3c2cc1[N+](=O)[O-]` was tested, and the GI50 [1] was 4.42 µM, the TGI [1] was 88 µM and the GI50 [2] was 3.69 µM. It also gave a TGI [2] of over 100 µM, a GI50 [3] of 3.81 µM and a TGI [3] of over 100 µM. For the same molecule, the GI50 [44] was 4.11 µM, the TGI [44] was over 100 µM and the GI50 [4] was 7 µM. The TGI [4] was over 100 µM, the GI50 [5] was 6.18 µM and the TGI [5] was over 100 µM. For the same molecule, the GI50 [6] was 9.91 µM, the TGI [6] was over 100 µM and the GI50 [7] was 4.63 µM. It also gave a TGI [7] of over 100 µM, a GI50 [8] of 3.51 µM and a TGI [8] of over 100 µM. The GI50 [9] was 2.93 µM, the TGI [9] was over 100 µM and the GI50 [53] was 2.03 µM. For the same molecule, the TGI [53] was over 100 µM, the GI50 [10] was 63.4 µM and the TGI [10] was over 100 µM. The GI50 [11] was 4.63 µM, the TGI [11] was over 100 µM and the GI50 [12] was 4.11 µM. The TGI [12] was over 100 µM, the GI50 [13] was 15.8 µM and the TGI [13] was over 100 µM. For the same molecule, the GI50 [45] was 11.9 µM, the TGI [45] was over 100 µM and the GI50 [14] was 4.55 µM. For the same molecule, the TGI [14] was over 100 µM, the GI50 [15] was 2.08 µM and the TGI [15] was 20 µM. It also gave a GI50 [54] of 3.3 µM, a TGI [54] of 88.1 µM and a GI50 [55] of 7.38 µM. For the same molecule, the TGI [55] was 36.2 µM, the GI50 [16] was 5.29 µM and the TGI [16] was over 100 µM. For the same molecule, the GI50 [17] was 23.3 µM, the TGI [17] was over 100 µM and the GI50 [18] was 3.28 µM. The TGI [18] was over 100 µM, the GI50 [46] was 3.52 µM and the TGI [46] was over 100 µM. The GI50 [47] was 5.16 µM, the TGI [47] was over 100 µM and the GI50 [19] was over 100 µM. It also gave a TGI [19] of over 100 µM, a GI50 [20] of 3.29 µM and a TGI [20] of over 100 µM. It also gave a GI50 [21] of 6.07 µM, a TGI [21] of over 100 µM and a GI50 [22] of 3.87 µM. It also gave a TGI [22] of over 100 µM, a GI50 [48] of 2.25 µM and a TGI [48] of over 100 µM. The GI50 [23] was 2.95 µM, the TGI [23] was over 100 µM and the GI50 [24] was 1.67 µM. The TGI [24] was over 100 µM, the GI50 [25] was 3.9 µM and the TGI [25] was over 100 µM. The GI50 [49] was 6.27 µM, the TGI [49] was over 100 µM and the GI50 [26] was 24.1 µM. The TGI [26] was over 100 µM, the GI50 [28] was 2.46 µM and the TGI [28] was over 100 µM. For the same molecule, the GI50 [56] was 6.99 µM, the TGI [56] was 92.2 µM and the GI50 [29] was 3.99 µM. It also gave a TGI [29] of over 100 µM, a GI50 [30] of 22.9 µM and a TGI [30] of over 100 µM. It also gave a GI50 [31] of 19.5 µM, a TGI [31] of over 100 µM and a GI50 [32] of 9.97 µM. It also gave a TGI [32] of over 100 µM, a GI50 [33] of over 100 µM and a TGI [33] of over 100 µM. The GI50 [34] was 7.08 µM, the TGI [34] was over 100 µM and the GI50 [35] was 7.29 µM. The TGI [35] was over 100 µM, the GI50 [36] was 3.85 µM and the TGI [36] was 31.7 µM. The GI50 [38] was 8.7 µM, the TGI [38] was 38.2 µM and the GI50 [51] was 3.71 µM. It also gave a TGI [51] of 91.4 µM, a GI50 [57] of 3.25 µM and a TGI [57] of 39.2 µM. For the same molecule, the GI50 [39] was 4.67 µM, the TGI [39] was over 100 µM and the GI50 [52] was 0.979 µM. For the same molecule, the TGI [52] was over 100 µM, the GI50 [40] was 4.65 µM and the TGI [40] was over 100 µM. The GI50 [41] was 7.89 µM, the TGI [41] was over 100 µM and the GI50 [42] was 5.97 µM. It also gave a TGI [42] of over 100 µM, a GI50 [43] of 6.1 µM and a TGI [43] of over 100 µM.
